According to patent US11208675B2, “Reaction accelerating agent” (Kikkoman Corporation, priority 2016, dated 2021):

target: T1, peroxidase PEO-301 (Toyobo Co., Ltd.) (Armoracia rusticana, UniProt P00433); assay: Hydrogen peroxide detection reaction mediated by peroxidase, completed using an excess of peroxidase (Example 1); format: biochemical; settings: ΔA of A694/751, 9 minutes after mixing second reagent with first reagent-A; 0.067 U/ml peroxidase; 0.48% (w/v) compound in second reagent; 0.00012% (w/v) hydrogen peroxide; DA-67; pH 6.5; 37° C.
T1 construct: purchased Toyobo Co., Ltd. PEO-301
T1 sequence (P00433 31-338): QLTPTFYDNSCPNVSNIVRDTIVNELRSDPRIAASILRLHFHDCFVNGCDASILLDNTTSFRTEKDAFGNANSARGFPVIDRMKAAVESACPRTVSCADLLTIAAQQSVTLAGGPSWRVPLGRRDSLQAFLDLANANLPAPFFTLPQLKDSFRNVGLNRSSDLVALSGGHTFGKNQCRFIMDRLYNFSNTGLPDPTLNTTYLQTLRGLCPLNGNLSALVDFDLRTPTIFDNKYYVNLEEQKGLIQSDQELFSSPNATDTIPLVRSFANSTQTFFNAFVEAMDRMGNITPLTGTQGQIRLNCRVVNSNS
Procedure: In this Example the amount of change in absorbance was determined when hydrogen peroxide detection reaction was completed using an excess of peroxidase.
A reagent for hydrogen peroxide measurement having the following composition (formulation) was prepared, and the measurement of hydrogen peroxide was carried out using Bio Majesty JCA-BM1650 (manufactured by JEOL Ltd.).
(§1) 100 mM MOPS-NaOH buffer solution, pH 6.5
(§2) 0.00012% (w/v) hydrogen peroxide
(§3) 30 mM MOPS-NaOH buffer solution, pH 6.5
(§4) 0.2% (w/v) n-dodecyl-β-D-maltoside (manufactured by Dojindo Laboratories)
0.067 U/ml peroxidase PEO-301 (Toyobo Co., Ltd.)
(§5) 0.023 mM 10-(carboxymethylaminocarbonyl)-3,7-bis(dimethylamino)phenothiazine sodium (DA-67, manufactured by Wako Pure Chemical Industries, Ltd.)
0.48% (w/v) of the compound of Comparative Example 2 (Wako Pure Chemical Industries, Ltd.), any one compound of the present invention (all from Tokyo Chemical Industry Co., Ltd.), or compound-free (Comparative Example 1) ion-exchange water as shown in Table 1
(§6) 8 μl of the second reagent was added to 96 μl of the first reagent-A, and the mixture was incubated at 37° C. for 5 minutes. Then, 24 μl of the sample was added thereto, and the quantitative reaction of hydrogen peroxide was allowed to progress at 37° C. for 5 minutes. The absorbance (A694 and A751) of the reaction solution for light at wavelengths of 694 nm and 751 nm was measured over time for 10 minutes after the mixing of the second reagent with the first reagent-A to determine the value of subtraction of A751 from A694, i.e., the value of A694/751. Subsequently, ΔA was calculated by subtracting, from A694/751, the value of (104/128) times A694/751 4.8 minutes after the mixing of the second reagent with the first reagent-A. Incidentally, 4.8 minutes after the mixing of the second reagent with the first reagent-A represents the time immediately before the addition of the sample. ΔA 9 minutes and 10 minutes after the mixing of the second reagent with the first reagent-A (ΔA9 min and ΔA10 min) is shown in Table 1.
In other words, it can be understood that the quantitative reaction of hydrogen peroxide was completed in 10 minutes after the mixing of the second reagent with the first reagent-A. Accordingly, ΔA10 min in each Comparative Example or the present invention was defined as ΔA when 100% of the quantitative reaction of hydrogen peroxide progressed under each condition (ΔA100%).

Compound | ΔA9 min
O=C(O)c1cc2ccccc2c(N=Nc2c(O)cc(S(=O)(=O)O)c3ccccc23)c1O [2-hydroxy-1-(2-hydroxy-4-sulfo-1-naphthylazo)-3-naphthoic acid] | 0.084
Oc1ccc(N=Nc2ccccc2)cc1 [4-(Phenylazo)phenol, 4-(phenylazo)phenol] | 0.122
O=C([O-])c1cc(N=Nc2cccc([N+](=O)[O-])c2)ccc1O.[Na+] [Alizarin Yellow GG] | 0.170
COc1cc(N=Nc2cccc(S(=O)(=O)[O-])c2)ccc1NC(=O)Nc1ccc(N=Nc2ccc(O)c(C(=O)[O-])c2)cc1.[Na+].[Na+] [Direct Yellow 44] | 0.228
O=C([O-])C1=NN(c2ccc(S(=O)(=O)[O-])cc2)C(=O)C1N=Nc1ccc(S(=O)(=O)[O-])cc1.[Na+].[Na+].[Na+] (stereo not drawn) [Tartrazine, reference compound] | 0.344
Chrome Yellow | 0.272

same assay, conditions: ΔA of A694/751, 10 minutes after mixing second reagent with first reagent-A (defined as ΔA100%); 0.067 U/ml peroxidase; 0.48% (w/v) compound in second reagent; 0.00012% (w/v) hydrogen peroxide; DA-67; pH 6.5; 37° C.

Compound | ΔA10 min
O=C(O)c1cc2ccccc2c(N=Nc2c(O)cc(S(=O)(=O)O)c3ccccc23)c1O [2-hydroxy-1-(2-hydroxy-4-sulfo-1-naphthylazo)-3-naphthoic acid] | 0.085
Oc1ccc(N=Nc2ccccc2)cc1 [4-(Phenylazo)phenol, 4-(phenylazo)phenol] | 0.122
O=C([O-])c1cc(N=Nc2cccc([N+](=O)[O-])c2)ccc1O.[Na+] [Alizarin Yellow GG] | 0.170
COc1cc(N=Nc2cccc(S(=O)(=O)[O-])c2)ccc1NC(=O)Nc1ccc(N=Nc2ccc(O)c(C(=O)[O-])c2)cc1.[Na+].[Na+] [Direct Yellow 44] | 0.228
O=C([O-])C1=NN(c2ccc(S(=O)(=O)[O-])cc2)C(=O)C1N=Nc1ccc(S(=O)(=O)[O-])cc1.[Na+].[Na+].[Na+] (stereo not drawn) [Tartrazine, reference compound] | 0.344
Chrome Yellow | 0.272

target: T1, peroxidase PEO-301 (Toyobo Co., Ltd.); assay: Acceleration of hydrogen peroxide detection reaction mediated by peroxidase, using a small amount of peroxidase (Example 2); format: biochemical; settings: as shown in Table 2; 0.013 U/ml peroxidase; compared with not added
Procedure: Next, in this Example, the degree of acceleration of hydrogen peroxide detection reaction by the compound of the present invention was determined using a small amount of peroxidase.
A reagent for Hydrogen peroxide measurement having the following composition was prepared, and the measurement of hydrogen peroxide was carried out using Bio Majesty JCA-BM1650 (manufactured by JEOL Ltd.).
as §1, §2, §3, §4
0.013 U/ml peroxidase PEO-301 (Toyobo Co., Ltd.)
as §5
0.48% (w/v) of the compound of Comparative Example 2, any one compound of the present invention, or compound-free (Comparative Example 1) ion-exchange water as shown in Table 2
as §6, with “reagent-B,” for “reagent-A,”, “reagent-B” for “reagent-A”, “reagent-B.” for “reagent-A.”, “sample.” for “sample. ΔA 9 minutes and 10 minutes after the mixing of the second reagent with the first reagent-A (ΔA9 min and ΔA10 min) is shown in Table 1.”
Next, ΔA calculated in this Example was divided by ΔA100% defined in Example 1 to calculate the degree of progression of hydrogen peroxide detection reaction. The degree of progression of hydrogen peroxide detection reaction 7.5 and 10 minutes after the mixing of the second reagent with the first reagent-B (in other words, 2.5 and 5 minutes, respectively, after the addition of the sample) is shown in Table 2.

Compound | acceleration of hydrogen peroxide detection reaction using peroxidase
O=C(O)c1cc2ccccc2c(N=Nc2c(O)cc(S(=O)(=O)O)c3ccccc23)c1O [2-hydroxy-1-(2-hydroxy-4-sulfo-1-naphthylazo)-3-naphthoic acid] | accelerated
Oc1ccc(N=Nc2ccccc2)cc1 [4-(Phenylazo)phenol, 4-(phenylazo)phenol] | accelerated
O=C([O-])c1cc(N=Nc2cccc([N+](=O)[O-])c2)ccc1O.[Na+] [Alizarin Yellow GG] | accelerated
COc1cc(N=Nc2cccc(S(=O)(=O)[O-])c2)ccc1NC(=O)Nc1ccc(N=Nc2ccc(O)c(C(=O)[O-])c2)cc1.[Na+].[Na+] [Direct Yellow 44] | accelerated
O=C([O-])C1=NN(c2ccc(S(=O)(=O)[O-])cc2)C(=O)C1N=Nc1ccc(S(=O)(=O)[O-])cc1.[Na+].[Na+].[Na+] (stereo not drawn) [Tartrazine, reference compound] | accelerated
Chrome Yellow | accelerated

same assay, conditions: ΔA divided by ΔA100%; 7.5 minutes after mixing second reagent with first reagent-B (2.5 minutes after addition of sample); 0.013 U/ml peroxidase; 0.48% (w/v) compound in second reagent; 37° C.

Compound | Degree of progression of reaction (%) after 7.5 minutes [%]
O=C(O)c1cc2ccccc2c(N=Nc2c(O)cc(S(=O)(=O)O)c3ccccc23)c1O [2-hydroxy-1-(2-hydroxy-4-sulfo-1-naphthylazo)-3-naphthoic acid] | 61
Oc1ccc(N=Nc2ccccc2)cc1 [4-(Phenylazo)phenol, 4-(phenylazo)phenol] | 69
O=C([O-])c1cc(N=Nc2cccc([N+](=O)[O-])c2)ccc1O.[Na+] [Alizarin Yellow GG] | 64
COc1cc(N=Nc2cccc(S(=O)(=O)[O-])c2)ccc1NC(=O)Nc1ccc(N=Nc2ccc(O)c(C(=O)[O-])c2)cc1.[Na+].[Na+] [Direct Yellow 44] | 64
O=C([O-])C1=NN(c2ccc(S(=O)(=O)[O-])cc2)C(=O)C1N=Nc1ccc(S(=O)(=O)[O-])cc1.[Na+].[Na+].[Na+] (stereo not drawn) [Tartrazine, reference compound] | 57
Chrome Yellow | 66

same assay, conditions: ΔA divided by ΔA100%; 10 minutes after mixing second reagent with first reagent-B (5 minutes after addition of sample); 0.013 U/ml peroxidase; 0.48% (w/v) compound in second reagent; 37° C.

Compound | Degree of progression of reaction (%) after 10 minutes [%]
O=C(O)c1cc2ccccc2c(N=Nc2c(O)cc(S(=O)(=O)O)c3ccccc23)c1O [2-hydroxy-1-(2-hydroxy-4-sulfo-1-naphthylazo)-3-naphthoic acid] | 90
Oc1ccc(N=Nc2ccccc2)cc1 [4-(Phenylazo)phenol, 4-(phenylazo)phenol] | 90
O=C([O-])c1cc(N=Nc2cccc([N+](=O)[O-])c2)ccc1O.[Na+] [Alizarin Yellow GG] | 89
COc1cc(N=Nc2cccc(S(=O)(=O)[O-])c2)ccc1NC(=O)Nc1ccc(N=Nc2ccc(O)c(C(=O)[O-])c2)cc1.[Na+].[Na+] [Direct Yellow 44] | 89
O=C([O-])C1=NN(c2ccc(S(=O)(=O)[O-])cc2)C(=O)C1N=Nc1ccc(S(=O)(=O)[O-])cc1.[Na+].[Na+].[Na+] (stereo not drawn) [Tartrazine, reference compound] | 85
Chrome Yellow | 92
